Measurements from patent US20060241096A1, “Agent for preventing or treating organ functional disorders and organ dysfunction” (priority 2001, published 2006).
Marks after values point to notes of the source that are not given here. Values belong to the compound of their own block, whether it stands above or below them.

What was measured:
cerebral infarction = assay: Cerebral infarction suppressing effect (Test Example 4); assay type: in vivo, rat; conditions: male SD rats, 14 administrations, arteria cerebri media occluded 2 h, 48 hrs reperfusion, TTC staining, mean ± standard error, N = 19-22
Experimental: Each of 6-week old male SD rats (19 to 22 rats per group) was forced oral administration of a vehicle or test compound 1 using a gastric sonde by the volume of 5 mL/kg so that the doses became 2, 20 mg/kg, respectively, using a gastric sonde. The day after 14 times of administration, a silicone plug was inserted from the carotid artery under halothane anesthetic to occlude proximal portion of the arteria cerebri media. After two hours, the plug was removed under light anesthetic, and reperfusion was carried out. After 48 hrs of reperfusion, the rats were beheaded to slaughter. Six pieces of sliced brain from the forehead (thickness: 2 mm) were carved out and subjected to TTC staining (1% TTC, 37° C., 15 min). The TTC-stained image was photographed by a digital camera, and the area of cerebral infarction was measured by an image analyzer. (Table 4)

[1] = system: ubiquinone (CoQ9, CoQ10) in brain; assay: Ubiquinone increasing effect in brain (Test Example 3); assay type: in vivo, rat; conditions: male SD rats, 14 administrations, arteria cerebri media occluded 2 h, 8 hrs reperfusion, right cerebral cortices and striata, mean ± standard error, N = 8
Experimental: Each of 6-week old male SD rats (eight rats per group) was forced oral administration of a vehicle or test compound 1 using a gastric sonde by the volume of 5 mL/kg so that the doses became 2, 20 mg/kg, respectively. The day after 14 times of administration, a silicone plug was inserted from the carotid artery under halothane anesthetic to occlude proximal portion of the arteria cerebri media. After two hours, the plug was removed under light anesthetic, and reperfusion was carried out. After 8 hrs of reperfusion, the rats were beheaded to slaughter. The right cerebral cortices and striata were collected, frozen on dry ice and preserved at −80° C. On the following day, the right cerebral cortices and striata were homogenized and oxidized with iron(III) chloride. After extraction with ethanol/hexane, the concentration of ubiquinone was determined by HPLC (Table 3).

myocardial infarction = assay: Effect on myocardial infarction (Test Example 5); assay type: in vivo, rat; conditions: male Wistar rats, left coronary artery ligated 25 min, 2 hrs reperfusion, mean ± standard error, N = 7-10
Experimental: Each of 6-week old male Wistar rats (7-10 rats per group) was forced oral administration of vehicle, test compound 1 (2, 20 mg/kg), Atorvastatin (2, 20 mg/kg), Simvastatin (2, 20 mg/kg) using a gastric sonde by the volume of 1 mL/kg and once per day for 15 days. After 1 hr of the final administration, the anterior descending-branch of left coronary artery was ligated and reperfused after 25 min. After 2 hrs of reperfusion, Evance blue was intravenously injected from the right cervical vein so that the non-ischemic area was stained and can be distinguished from the ischemic area, and the rats were slaughtered. The ischemic area was carved out, and the living area was stained using p-nitroblue tetrazolium and distinguished from the necrotic area (portion of myocardial infarction). The area of myocardial infarction was calculated by the weight ratio relative to the ischemic area (Table 5).

[2] = system: ubiquinone (CoQ9) in heart; assay: Ubiquinone increasing effect in heart (Test Example 1); assay type: in vivo, rat; conditions: male SD rats, mean ± standard error, N = 8
Experimental: (§1) Each of 6-week old male SD rats (eight rats per group) was forced oral administration of a vehicle or test compound 1 using a gastric sonde by the volume of 5 mL/kg so that the doses became 6, 20, 60 mg/kg, respectively, once a day for 14 days. On the morning after 14 times of administration, the animals were beheaded to slaughter. Hearts were collected immediately, frozen in liquid nitrogen and stored at −80° C. On the following day, the hearts were homogenized and oxidized with iron(III) chloride. After extraction with ethanol/hexane, the concentration of ubiquinone was determined by HPLC (Table 1).

[3] = system: ubiquinone (CoQ9) in liver and heart; assay: Ubiquinone increasing effect in liver and heart (Test Example 2); assay type: in vivo, rat; conditions: male SD rats, mean ± standard error, N = 8
Experimental: as §1, with “to slaughter. Liver and hearts were collected” for “to slaughter. Hearts were collected”, “day, the livers and hearts were” for “day, the hearts were”, “HPLC (Table 2).” for “HPLC (Table 1).”

[4] = 2 mg/kg oral once per day for 15 days
[5] = 20 mg/kg oral once per day for 15 days
[6] = 6 mg/kg oral once a day for 14 days
[7] = 20 mg/kg oral once a day for 14 days
[8] = 60 mg/kg oral once a day for 14 days

Structure (SMILES): COc1cccc([C@H]2O[C@H](CC(=O)N3CCC(CC(=O)O)CC3)C(=O)N(CC(C)(C)COC(C)=O)c3ccc(Cl)cc32)c1OC [Compound 1, N-[[(3R,5S)-1-(3-acetoxy-2,2-dimethylpropyl)-7-chloro-5-(2,3-dimethoxyphenyl)-2-oxo-1,2,3,5-tetrahydro-4,1-benzoxazepin-3-yl]acetyl]piperidine-4-acetic acid]
Volume of cerebral infarction (cerebral infarction; 2 mg/kg oral): 289 ± 27 mm^3
Volume of cerebral infarction (cerebral infarction; 20 mg/kg oral): 220 ± 35* mm^3
Amount of CoQ9 in brain ([1]; 2 mg/kg oral): 22.0 ± 0.4 μg/g brain
Amount of CoQ10 in brain ([1]; 2 mg/kg oral): 13.0 ± 0.3 μg/g brain
Amount of CoQ9 in brain ([1]; 20 mg/kg oral): 24.9 ± 0.5 μg/g brain
Amount of CoQ10 in brain ([1]; 20 mg/kg oral): 14.7 ± 0.3 μg/g brain
Area of myocardial infarction (myocardial infarction; [4]): 61 ± 4 % ischemic area
Area of myocardial infarction (myocardial infarction; [5]): 43 ± 2 % ischemic area
Amount of CoQ9 in heart [2, 6]: 214.4 ± 6.6 μg/g heart
Amount of CoQ9 in heart [2, 7]: 215.3 ± 5.7 μg/g heart
Amount of CoQ9 in heart [2, 8]: 225.0 ± 4.6 μg/g heart

melting point: 141 to 144 °C
Structure (SMILES): COc1cccc([C@H]2O[C@H](CC(=O)Nc3cccc(CCC(=O)O)c3)C(=O)N(CC(C)(C)CO)c3ccc(Cl)cc32)c1OC [Compound 2, 3-[3-[[(3R,5S)-7-chloro-5-(2,3-dimethoxyphenyl)-1-(3-hydroxy-2,2-dimethylpropyl)-2-oxo-1,2,3,5-tetrahydro-4,1-benzoxazepin-3-yl]acetyl]aminophenyl]propionic acid]
Amount of CoQ9 in heart [3, 6]: 202.7 ± 2.7 μg/g heart
Amount of CoQ9 in liver [3, 6]: 105.2 ± 3.5 μg/g liver
Amount of CoQ9 in heart [3, 7]: 208.3 ± 4.6 μg/g heart
Amount of CoQ9 in liver [3, 7]: 117.6 ± 4.6 μg/g liver
Amount of CoQ9 in heart [3, 8]: 204.7 ± 4.0 μg/g heart
Amount of CoQ9 in liver [3, 8]: 125.4 ± 3.4 μg/g liver

Structure (SMILES): CC(C)c1c(C(=O)Nc2ccccc2)c(-c2ccccc2)c(-c2ccc(F)cc2)n1CC[C@@H](O)C[C@@H](O)CC(=O)O [Atorvastatin]
Area of myocardial infarction (myocardial infarction; [4]): 51 ± 4 % ischemic area
Area of myocardial infarction (myocardial infarction; [5]): 47 ± 6 % ischemic area

Structure (SMILES): CCC(C)(C)C(=O)O[C@H]1C[C@@H](C)C=C2C=C[C@H](C)[C@H](CC[C@@H]3C[C@@H](O)CC(=O)O3)[C@H]21 [Simvastatin]
Area of myocardial infarction (myocardial infarction; [4]): 51 ± 3 % ischemic area
Area of myocardial infarction (myocardial infarction; [5]): 51 ± 2 % ischemic area
